Reference: PubChem BioAssay AID326 (DTP/NCI, 2004)
Where “and” joins values, the source holds several entries; their conditions need not be identical. Equal values may be shown once. Inconclusive results and toxic doses are left out.

System: CD2F1 mice, P388/DHAQ leukemia ip, median survival T/C
Test: NCI In Vivo Anticancer Drug Screen. Data for tumor model P388 Leukemia resistant to Dihydroxy Anthracenedione; NSC 299195 (intraperitoneal) in CD2F1 (CDF1) mice
Conditions: endpoint: median survival time, higher = longer survival
Procedure: The antitumor activity of compounds was measured in mice bearing transplantable tumors. Survival or tumor size were measured and the results are expressed as the measurement made in the treated group (T) divided by the measurement made in the vehicle treated control group (C). The tumor model used in this assay is P388 Leukemia resistant to Dihydroxy Anthracenedione; NSC 299195 (intraperitoneal) in CD2F1 (CDF1) mice

O=NN(CCCl)C(=O)NC1CCCCC1 was tested. Which T/C (dose: 7.2 mg/kg/injection, schedule: Q04DX003 (ip), vehicle: saline + alcohol) did it give?
Its T/C is 192 % of control.

What about the T/C (dose: 12.0 mg/kg/injection, schedule: Q04DX003 (ip), vehicle: saline + alcohol) of the same compound?
Its T/C is 337 % of control.

What about the T/C (dose: 20.0 mg/kg/injection, schedule: Q04DX003 (ip), vehicle: saline + alcohol) of the same compound?
The T/C was 542 % of control.

And the T/C (dose: 33.3 mg/kg/injection, schedule: Q04DX003 (ip), vehicle: saline + alcohol)?
Its T/C is 202 % of control.

How did the T/C (dose: 0.05 mg/kg/injection, schedule: Q04DX003 (ip), vehicle: DMSO) turn out when COc1c(O)c2c(c3cc(C(=O)N4CCc5c4c(O)c(OC)c4[nH]c(C(=O)N6CC7CC78C6=CC(=O)c6[nH]cc(C)c68)cc54)[nH]c13)CCN2C(N)=O (stereo not drawn) was run?
The T/C was 122 % of control.

And the T/C (dose: 0.09 mg/kg/injection, schedule: Q04DX003 (ip), vehicle: DMSO)?
Its T/C is 119 % of control.

And the T/C (dose: 13.0 micrograms/kg/injection, schedule: Q01DX009 (ip), vehicle: DMSO)?
The T/C was 100 % of control.

What about the T/C (dose: 21.6 micrograms/kg/injection, schedule: Q01DX009 (ip), vehicle: DMSO) of the same compound?
The T/C was 96 % of control.

What about the T/C (dose: 36.0 micrograms/kg/injection, schedule: Q01DX009 (ip), vehicle: DMSO) of the same compound?
The T/C was 94 % of control.

And the T/C (dose: 38.9 micrograms/kg/injection, schedule: Q04DX003 (ip), vehicle: DMSO)?
Its T/C is 114 % of control.

And the T/C (dose: 60.0 micrograms/kg/injection, schedule: Q01DX009 (ip), vehicle: DMSO)?
The T/C was 93 % of control.

And the T/C (dose: 64.8 micrograms/kg/injection, schedule: Q04DX003 (ip), vehicle: DMSO)?
Its T/C is 114 % of control.

And the T/C (dose: 100.0 micrograms/kg/injection, schedule: Q01DX009 (ip), vehicle: DMSO)?
The T/C was 94 % of control.

What about the T/C (dose: 108.0 micrograms/kg/injection, schedule: Q04DX003 (ip), vehicle: DMSO) of the same compound?
The T/C was 121 % of control.

And the T/C (dose: 180.0 micrograms/kg/injection, schedule: Q04DX003 (ip), vehicle: DMSO)?
Its T/C is 105 % of control.

What about the T/C (dose: 300.0 micrograms/kg/injection, schedule: Q04DX003 (ip), vehicle: DMSO) of the same compound?
The T/C was 102 % of control.

What about the T/C (dose: 300.0 micrograms/kg/injection, schedule: Q04DX003 (ip), vehicle: saline) of the same compound?
The T/C was 100 % of control.

S=P(N1CC1)(N1CC1)N1CC1 was tested. Which T/C (dose: 3.24 mg/kg/injection, schedule: Q04DX002 (ip), vehicle: saline) did it give?
The T/C was 103 % of control.

What about the T/C (dose: 5.4 mg/kg/injection, schedule: Q04DX002 (ip), vehicle: saline) of the same compound?
Its T/C is 122 % of control.

And the T/C (dose: 15.0 mg/kg/injection, schedule: Q04DX002 (ip), vehicle: saline)?
The T/C was 183 % of control.

Which results are given for O=C(Nc1ccc(C2=NCCN2)cc1)c1ccc(C(=O)Nc2ccc(C3=NCCN3)cc2)c(Cl)c1?
T/C (dose: 16.2 mg/kg/injection, schedule: Q04DX003 (ip), vehicle: saline with Tween-80): 94 % of control; T/C (dose: 27.0 mg/kg/injection, schedule: Q04DX003 (ip), vehicle: saline with Tween-80): 98 % of control; T/C (dose: 45.0 mg/kg/injection, schedule: Q04DX003 (ip), vehicle: saline with Tween-80): 97 % of control

Which results are given for O=c1[nH]cc(F)c(=O)[nH]1?
T/C (dose: 13.0 mg/kg/injection, schedule: Q04DX003 (ip), vehicle: saline): 104 % of control; T/C (dose: 60.0 mg/kg/injection, schedule: Q04DX003 (ip), vehicle: saline): 116 % of control and 226 % of control; T/C (dose: 100.0 mg/kg/injection, schedule: Q04DX003 (ip), vehicle: saline): 109 % of control

O=C1c2c(O)ccc(O)c2C(=O)c2c(NCCNCCO)ccc(NCCNCCO)c21 was tested. Which T/C (dose: 0.65 mg/kg/injection, schedule: Q04DX003 (ip), vehicle: saline) did it give?
The T/C was 112 % of control.

And the T/C (dose: 0.78 mg/kg/injection, schedule: Q04DX003 (ip), vehicle: saline)?
The T/C was 119 % of control and 111 % of control.

What about the T/C (dose: 1.08 mg/kg/injection, schedule: Q04DX003 (ip), vehicle: saline) of the same compound?
Its T/C is 107 % of control.

What about the T/C (dose: 1.3 mg/kg/injection, schedule: Q04DX002 (ip), vehicle: water) of the same compound?
Its T/C is 112 % of control and 114 % of control and 100 % of control.

And the T/C (dose: 1.62 mg/kg/injection, schedule: Q04DX003 (ip), vehicle: saline)?
Its T/C is 104 % of control.

And the T/C (dose: 2.16 mg/kg/injection, schedule: Q04DX002 (ip), vehicle: water)?
The T/C was 103 % of control and 120 % of control.

And the T/C (dose: 2.7 mg/kg/injection, schedule: Q04DX003 (ip), vehicle: saline)?
The T/C was 119 % of control.

What about the T/C (dose: 3.6 mg/kg/injection, schedule: Q04DX002 (ip), vehicle: water) of the same compound?
The T/C was 104 % of control and 105 % of control and 97 % of control.

What about the T/C (dose: 4.0 mg/kg/injection, schedule: Q04DX002 (ip), vehicle: water) of the same compound?
Its T/C is 100 % of control.

What about the T/C (dose: 4.5 mg/kg/injection, schedule: Q04DX003 (ip), vehicle: saline) of the same compound?
Its T/C is 124 % of control.

What about the T/C (dose: 6.0 mg/kg/injection, schedule: Q04DX002 (ip), vehicle: water) of the same compound?
Its T/C is 93 % of control and 96 % of control and 97 % of control.

What about the T/C (dose: 6.67 mg/kg/injection, schedule: Q04DX002 (ip), vehicle: water) of the same compound?
The T/C was 106 % of control.

What about the T/C (dose: 7.5 mg/kg/injection, schedule: Q04DX003 (ip), vehicle: saline) of the same compound?
The T/C was 120 % of control.

What about the T/C (dose: 10.0 mg/kg/injection, schedule: Q04DX002 (ip), vehicle: water) of the same compound?
The T/C was 87 % of control and 88 % of control.

What about the T/C (dose: 10.0 mg/kg/injection, schedule: Q04DX003 (ip), vehicle: saline) of the same compound?
The T/C was 109 % of control.

Which results are given for CCC1(O)CC2CN(CCc3c([nH]c4ccccc34)C(C(=O)OC)(c3cc4c(cc3OC)N(C)C3C(O)(C(N)=O)C(O)C5(CC)C=CCN6CCC43C65)C2)C1 (stereo not drawn) (tested in a mixture with another compound)?
T/C (dose: 0.65 mg/kg/injection, schedule: Q04DX003 (ip), vehicle: clinical formulation): 173 % of control; T/C (dose: 1.08 mg/kg/injection, schedule: Q04DX003 (ip), vehicle: clinical formulation): 182 % of control; T/C (dose: 1.8 mg/kg/injection, schedule: Q04DX003 (ip), vehicle: clinical formulation): 208 % of control; T/C (dose: 3.0 mg/kg/injection, schedule: Q04DX003 (ip), vehicle: clinical formulation): 87 % of control

With CC(=O)[C@]1(O)Cc2c(O)c3c(c(O)c2[C@@H](OC2CC(N)C(O)C(C)O2)C1)C(=O)c1c(O)cccc1C3=O (stereo partly drawn) as the compound, how does the T/C (dose: 0.32 mg/kg/injection, schedule: Q04DX003 (ip), vehicle: saline) read?
Its T/C is 113 % of control.

And the T/C (dose: 0.54 mg/kg/injection, schedule: Q04DX003 (ip), vehicle: saline)?
The T/C was 111 % of control.

And the T/C (dose: 1.5 mg/kg/injection, schedule: Q04DX003 (ip), vehicle: saline)?
The T/C was 110 % of control.

And the T/C (dose: 2.0 mg/kg/injection, schedule: Q04DX003 (ip), vehicle: saline)?
Its T/C is 96 % of control.

What about the T/C (dose: 2.5 mg/kg/injection, schedule: Q04DX003 (ip), vehicle: saline) of the same compound?
The T/C was 95 % of control.

What does the source list for CCN(CC)CCNc1ccc(C)c2sc3ccccc3c(=O)c12?
T/C (dose: 16.2 mg/kg/injection, schedule: Q01DX005 (ip), vehicle: saline): 106 % of control; T/C (dose: 19.4 mg/kg/injection, schedule: Q01DX005 (ip), vehicle: saline): 100 % of control; T/C (dose: 19.44 mg/kg/injection, schedule: Q01DX005 (ip), vehicle: saline): 106 % of control; T/C (dose: 27.0 mg/kg/injection, schedule: Q01DX005 (ip), vehicle: saline): 107 % of control; T/C (dose: 32.4 mg/kg/injection, schedule: Q01DX005 (ip), vehicle: saline): 102 % of control and 113 % of control; T/C (dose: 38.9 mg/kg/injection, schedule: Q04DX003 (ip), vehicle: saline): 106 % of control; T/C (dose: 45.0 mg/kg/injection, schedule: Q01DX005 (ip), vehicle: saline): 121 % of control; T/C (dose: 54.0 mg/kg/injection, schedule: Q01DX005 (ip), vehicle: saline): 106 % of control and 124 % of control; T/C (dose: 64.8 mg/kg/injection, schedule: Q04DX003 (ip), vehicle: saline): 104 % of control; T/C (dose: 90.0 mg/kg/injection, schedule: Q01DX005 (ip), vehicle: saline): 112 % of control; T/C (dose: 108.0 mg/kg/injection, schedule: Q04DX003 (ip), vehicle: saline): 120 % of control; T/C (dose: 125.0 mg/kg/injection, schedule: Q01DX005 (ip), vehicle: saline): 105 % of control

How did the T/C (dose: 5.4 mg/kg/injection, schedule: Q04DX003 (ip), vehicle: saline + alcohol) turn out when O=NN(CCCl)C(=O)NCCCl was run?
The T/C was 193 % of control.

What about the T/C (dose: 6.48 mg/kg/injection, schedule: Q04DX002 (ip), vehicle: saline + alcohol) of the same compound?
Its T/C is 150 % of control.

And the T/C (dose: 9.0 mg/kg/injection, schedule: Q04DX003 (ip), vehicle: saline + alcohol)?
The T/C was 319 % of control.

And the T/C (dose: 10.8 mg/kg/injection, schedule: Q04DX002 (ip), vehicle: saline + alcohol)?
The T/C was 168 % of control and 205 % of control.

What about the T/C (dose: 15.0 mg/kg/injection, schedule: Q04DX003 (ip), vehicle: saline + alcohol) of the same compound?
Its T/C is 463 % of control.

What about the T/C (dose: 18.0 mg/kg/injection, schedule: Q04DX002 (ip), vehicle: saline + alcohol) of the same compound?
The T/C was 317 % of control and 412 % of control.

And the T/C (dose: 25.0 mg/kg/injection, schedule: Q04DX003 (ip), vehicle: saline + alcohol)?
The T/C was 463 % of control.

And the T/C (dose: 30.0 mg/kg/injection, schedule: Q04DX002 (ip), vehicle: saline + alcohol)?
Its T/C is 412 % of control and 420 % of control.

What does the source list for NCCCN=c1ccc2c3c1c(O)c1c(O)ccc(=O)c1c3[nH]n2CCNCCO?
T/C (dose: 9.72 mg/kg/injection, schedule: Q04DX002 (ip), vehicle: water): 124 % of control; T/C (dose: 27.0 mg/kg/injection, schedule: Q04DX002 (ip), vehicle: water): 97 % of control; T/C (dose: 45.0 mg/kg/injection, schedule: Q04DX002 (ip), vehicle: water): 97 % of control
